Laboratory results taken from US4963544A, “3-pyrrolidinylthio-1-azabicyclo[3.2.0]-hept-2-ene-2-carboxylic acid compounds” (Fujisawa Pharmaceutical Company, Ltd., priority 1988, dated 1990).
Converted amounts (≈) assume the structure as drawn.

Tested on: E. Coli 31
Experiment: in vitro antimicrobial activity, two-fold agar-plate dilution method
Assay type: cell-based
Details: Escherichia coli; test strain E. Coli 31; 10^6 viable cells per ml; HI-agar; 37° C., 20 hours; read-out: MIC (minimal inhibitory concentration)
Method: in vitro Antimicrobial Activity was determined by the two-fold agar-plate dilution method as described blow.
One loopful of an overnight culture of a test strain in Trypticase-soy broth (10^6 viable cells per ml) was streaked on heart infusion agar (HI-agar) containing graded concentrations of the test compound, and the minimal inhibitory concentration (MIC) was expressed in terms of μg/ml after incubation at 37° C. for 20 hours.

C[C@@H](O)[C@H]1C(=O)N2C(C(=O)O)=C(S[C@@H]3CN[C@H](Cn4ccnc4)C3)[C@H](C)[C@H]12 [Example 2, (4R,5S,6S)-6-((IR)-1-hydroxyethyl) -3-((2S,4S)-2-(imidazol-1-yl)-methylpyrrolidin-4-yl) thio-4-methyl-7-oxo-1-azabicyclo(3.2.0) -hept-2-ene-2-carboxylic acid]
MIC: 0.05 µg/mL (≈ 0.127 µM)
